The text below walks through data of patent publication US12578336B2, “ATP detection” (Promega Corporation, priority 2022, dated 2026).

Experiment [1] addresses T1, Pp-apyrase (Phlebotomus papatasi, UniProt Q9GTP7).
T1 construct: GST (glutathione S transferase); made in house; host or cells: E. coli
The experiment can be described thus: Inactivation of Pp-apyrase by EGTA in cell lysis/ATP detection reagent, tube format. It is filed as biochemical. Particulars: 10 mM EGTA in cell lysis/ATP detection reagent. As to the method: Luminescent signals were measured over time starting immediately after addition of the lysis/ATP detection reagent. Reactions were performed in microcentrifuge-style tubes and analyzed for luminescence on a single tube reading luminometer (GloMax® 20/20, Promega Corp.).
Reactions were performed in microcentrifuge-style tubes and analyzed for luminescence on a single tube reading luminometer (GloMax® 20/20, Promega Corp.).

Experiment [2] deals with T2, ENPP1 (Homo sapiens, UniProt P22413).
T2 sequence (P22413 1-925): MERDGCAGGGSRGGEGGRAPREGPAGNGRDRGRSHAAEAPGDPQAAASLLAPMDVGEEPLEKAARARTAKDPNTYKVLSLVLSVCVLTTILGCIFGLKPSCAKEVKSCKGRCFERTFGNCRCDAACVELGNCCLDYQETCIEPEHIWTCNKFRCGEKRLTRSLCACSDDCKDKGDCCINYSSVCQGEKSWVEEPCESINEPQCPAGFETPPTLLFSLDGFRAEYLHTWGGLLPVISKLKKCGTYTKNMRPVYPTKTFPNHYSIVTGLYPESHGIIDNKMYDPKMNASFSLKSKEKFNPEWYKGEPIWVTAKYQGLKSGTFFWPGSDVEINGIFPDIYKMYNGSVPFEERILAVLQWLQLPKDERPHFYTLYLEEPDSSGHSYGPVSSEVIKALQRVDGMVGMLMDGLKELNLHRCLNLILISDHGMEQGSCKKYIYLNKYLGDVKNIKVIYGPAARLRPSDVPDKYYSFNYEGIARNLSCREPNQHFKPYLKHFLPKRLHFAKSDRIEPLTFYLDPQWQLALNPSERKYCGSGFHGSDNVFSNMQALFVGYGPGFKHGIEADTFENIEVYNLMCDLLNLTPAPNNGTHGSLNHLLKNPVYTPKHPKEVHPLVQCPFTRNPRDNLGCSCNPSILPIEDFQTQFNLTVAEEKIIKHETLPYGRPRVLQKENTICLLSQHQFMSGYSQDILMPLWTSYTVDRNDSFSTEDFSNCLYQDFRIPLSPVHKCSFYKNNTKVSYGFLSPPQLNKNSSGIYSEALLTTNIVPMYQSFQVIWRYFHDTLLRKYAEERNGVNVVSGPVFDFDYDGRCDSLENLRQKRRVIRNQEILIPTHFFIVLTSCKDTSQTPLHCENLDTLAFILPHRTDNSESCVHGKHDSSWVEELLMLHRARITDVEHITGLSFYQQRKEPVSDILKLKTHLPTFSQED
The experiment can be described thus: ENPP1 ATP degradation and its inhibition by chelators/inhibitor, Kinase-Glo. The class given is biochemical. As to the method: ENPP1 converts ATP to AMP and pyrophosphate, is zinc-dependent, and is inactivated by EGTA, by the zinc chelator N,N,N′,N′-Tetrakis (2 pyridylmethyl) ethylenediamine (TPEN), and by certain small molecule inhibitors.
ENPP1 (100 ng/reaction) was incubated with 10 μM ATP and varying amounts of chelators (EGTA, TPEN) or an ENPP1 selective inhibitor called inhibitor C in a reaction buffer containing 50 mM Tris HCl, pH 7.5, 250 mM NaCl, 5 uM ZnCl2, 0.1 mg/ml BSA. The reactions were allowed to proceed for 60 minutes.
A general note: Kinase-Glo measures the ATP left after a reaction by luminescence.

The target in experiment [3] is T1, Pp-apyrase. The experiment can be described thus: Inhibition of Pp-apyrase by EGTA in cartridge format. The class given is biochemical. The following applies: EGTA in lysis/ATP detection reagent, after an initial ATP elimination step. As to the method:
Apyrase from the sandfly Phlebotomus papatasi (Pp-apyrase) was also characterized for use in an exemplary cartridge format. […] Empty plastic cartridges were obtained from Empire Bio Diagnostics. […] 20 second exposures of ATP in swab tips were followed by immersion of the swab tips in the cartridge receptacle in the ATP detection/cell lysis formulation with 10 mM EGTA described for FIG. 6, and then insertion of the cartridge receptacle in a handheld luminometer (luminometer prototype by Empire Bio Diagnostics). […] A portion of the values shown above the vertical axis represent luminescent values too low to be visible as bars on the graph.

In experiment [4] the test system is St-apyrase (Ca2+/Mg2+ apyrase from potato). The experiment can be described thus: Inhibition of St-apyrase by EGTA, luminescence over time. The class given is biochemical, Solanum tuberosum. Particulars: same amount of EGTA; luminescence declined over time. The source says:
(§1) The Ca^2+/Mg^2+ apyrase from potato, Solanum tuberosum (St-apyrase), is the most commonly used apyrase for ATP elimination. However, its inactivation requires measures, such as high temperature or extreme pH treatment, which are incompatible with the simple cartridge design disclosed here. The need for an extended heating time for apyrase inactivation is also incompatible with the goal of rapid sample collection and analysis. […] Cl- and St-apyrase were compared for their capacity to remove extracellular ATP and to be inhibited by the Ca^2+-selective chelator EGTA. Mg^2+ is critical for luciferase activity so the Mg^2+-selective chelator EDTA was not tested. In the absence of EGTA, both enzymes eliminated ATP as indicated by a time-dependent decrease in luminescence (FIG. 3).

In experiment [5] the target is T3, Cl-apyrase (Ca-apyrase) (Cimex lectularius, UniProt O96559).
T3 construct: His tag; made in house; host or cells: E. coli
As to the kind of experiment: Inhibition of Cl-apyrase by EGTA, luminescence over time. It is filed as biochemical. Particulars: EGTA present; decline of luminescence over time.
Source text: as §1

“Also recorded” adds a separate entry of the source.

T1 sequence (Q9GTP7 22-336 limits assumed): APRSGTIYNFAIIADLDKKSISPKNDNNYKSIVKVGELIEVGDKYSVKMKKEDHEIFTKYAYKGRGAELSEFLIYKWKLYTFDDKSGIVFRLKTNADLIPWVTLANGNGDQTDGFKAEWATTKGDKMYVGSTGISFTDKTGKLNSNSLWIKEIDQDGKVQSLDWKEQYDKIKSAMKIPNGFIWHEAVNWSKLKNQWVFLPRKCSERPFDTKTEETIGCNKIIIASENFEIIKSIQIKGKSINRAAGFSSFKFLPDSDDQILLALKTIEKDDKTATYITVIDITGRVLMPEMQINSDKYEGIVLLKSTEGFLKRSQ
T3 sequence (O96559 36-364 limits assumed): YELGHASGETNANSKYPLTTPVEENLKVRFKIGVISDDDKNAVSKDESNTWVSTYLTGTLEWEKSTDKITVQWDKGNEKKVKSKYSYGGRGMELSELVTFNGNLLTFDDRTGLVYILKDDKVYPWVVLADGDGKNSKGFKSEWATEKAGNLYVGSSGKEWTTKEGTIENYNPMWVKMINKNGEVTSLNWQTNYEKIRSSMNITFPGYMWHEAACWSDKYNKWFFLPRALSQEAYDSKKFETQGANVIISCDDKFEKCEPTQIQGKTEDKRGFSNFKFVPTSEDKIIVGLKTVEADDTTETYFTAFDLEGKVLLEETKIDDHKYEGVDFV

For the molecule `O=C(O)CN(CCOCCOCCN(CC(=O)O)CC(=O)O)CC(=O)O` [EGTA], the “inactivation of Pp-apyrase (in words)” value in experiment [1] is “effectively inactivated; also recorded: substantially inactivated”. In addition, the “inactivation of ENPP1 (in words)” value in experiment [2] is “inactivated”. The “inhibition of Pp-apyrase in cartridge format (in words)” value in experiment [3] is “effective”. Also, in experiment [4], the “St-apyrase inhibition in the presence of EGTA (in words)” value is recorded as “only partially inhibited”. The “Cl-apyrase activity in the presence of EGTA (in words)” value in experiment [5] was “no Cl-apyrase activity was detected; also recorded: substantially inactivated”.

Turning to `c1ccc(CN(CCN(Cc2ccccn2)Cc2ccccn2)Cc2ccccn2)nc1` [TPEN, N,N,N′,N′-Tetrakis (2 pyridylmethyl) ethylenediamine], the “inactivation of ENPP1 (in words)” value in experiment [2] is given as “inactivated”.

B1: ENPP1: zinc-dependent enzyme that converts ATP to AMP and pyrophosphate (protein, UniProt P22413 1-925, looked up)
Ectonucleotide …: MERDGCAGGGSRGGEGGRAPREGPAGNGRDRGRSHAAEAPGDPQAAASLLAPMDVGEEPLEKAARARTAKDPNTYKVLSLVLSVCVLTTILGCIFGLKPSCAKEVKSCKGRCFERTFGNCRCDAACVELGNCCLDYQETCIEPEHIWTCNKFRCGEKRLTRSLCACSDDCKDKGDCCINYSSVCQGEKSWVEEPCESINEPQCPAGFETPPTLLFSLDGFRAEYLHTWGGLLPVISKLKKCGTYTKNMRPVYPTKTFPNHYSIVTGLYPESHGIIDNKMYDPKMNASFSLKSKEKFNPEWYKGEPIWVTAKYQGLKSGTFFWPGSDVEINGIFPDIYKMYNGSVPFEERILAVLQWLQLPKDERPHFYTLYLEEPDSSGHSYGPVSSEVIKALQRVDGMVGMLMDGLKELNLHRCLNLILISDHGMEQGSCKKYIYLNKYLGDVKNIKVIYGPAARLRPSDVPDKYYSFNYEGIARNLSCREPNQHFKPYLKHFLPKRLHFAKSDRIEPLTFYLDPQWQLALNPSERKYCGSGFHGSDNVFSNMQALFVGYGPGFKHGIEADTFENIEVYNLMCDLLNLTPAPNNGTHGSLNHLLKNPVYTPKHPKEVHPLVQCPFTRNPRDNLGCSCNPSILPIEDFQTQFNLTVAEEKIIKHETLPYGRPRVLQKENTICLLSQHQFMSGYSQDILMPLWTSYTVDRNDSFSTEDFSNCLYQDFRIPLSPVHKCSFYKNNTKVSYGFLSPPQLNKNSSGIYSEALLTTNIVPMYQSFQVIWRYFHDTLLRKYAEERNGVNVVSGPVFDFDYDGRCDSLENLRQKRRVIRNQEILIPTHFFIVLTSCKDTSQTPLHCENLDTLAFILPHRTDNSESCVHGKHDSSWVEELLMLHRARITDVEHITGLSFYQQRKEPVSDILKLKTHLPTFSQED
Consider B1, for which the “conditionally active ATP eliminating properties (in words)” value in experiment [2] (ENPP1 100 ng/reaction, 10 μM ATP, 60 minutes, 5 uM ZnCl2) is given as “qualitatively demonstrated the conditionally active ATP eliminating properties”.
